Source: patent publication US10064858B2, “Methods and compositions for treating bacterial infections with iron chelators” (THE UNITED STATES OF AMERICA, AS REPRESENTED BY THE …, priority 2011, dated 2018)
Where two headings read alike, the source gives them in different places.

Assays:
Type in all cases: cell-based
Acinetobacter baumannii = test: MIC, CLSI microdilution (Tables 1 and 6)
Description: (§1) The minimal inhibitory concentration (MIC) of non-toxic iron chelators was determined against standard strains of MDR bacteria and clinical isolates according to the guidelines of the Clinical and Laboratory Standards Institute (CLSI).
(§2) Individual MICs were determined following the microdilution method recommended by CLSI in cationic-adjusted Mueller-Hinton Broth (CAMHB), or M9 media. […] Tests were performed in triplicate. MIC of iron chelators were determined for noscomial ESKAPE pathogens.
(§3) MIC were determined in CAMHB media as described above in Example 8.

E. coli = test: MIC, CLSI microdilution (Tables 1 and 6); settings: Escherichia coli, Table 1, read-out: MIC of Iron Chelators
Description: as §1, §2, §3

K. pneumonia = test: MIC, CLSI microdilution (Tables 1 and 6); settings: Klebsiella pneumoniae, Table 1, read-out: MIC of Iron Chelators
Description: as §1, §2, §3

P. aeruginosa = test: MIC, CLSI microdilution (Tables 1 and 6); settings: Pseudomonas aeruginosa, Table 1, read-out: MIC of Iron Chelators
Description: as §1, §2, §3

S. aureus = test: MIC, CLSI microdilution (Tables 1 and 6); settings: Staphylococcus aureus, Table 1, read-out: MIC of Iron Chelators
Description: as §1, §2, §3

[1] = test system: clinical isolates of A. baumannii; test: MIC for clinical isolates in CAMHB media (Table 3); settings: Acinetobacter baumannii
Description: as §2

[2] = test system: A. baumannii AB 19606, AB 17978; test: Checkerboard assay, chelator with antibiotic (FIC); settings: for checkerboard interaction: AB19606
Source text: Drug interactions were initially evaluated with the “checkerboard” microdilution design, which provided a matrix of all drug combinations assayed in terms of fractions of the previously determined MIC. The checkerboard microdilution design is described in R. J. Tallarida, “Drug Synergism: Its Detection and Applications,” Journal of Pharmacology and Experimental Therapeutics, 865-872 (2001); and in R. L. White, et al., (1996), supra. FIGS. 39A and 39B show the wellplates having different concentrations of iron chelator and antibiotic, as labeled along the x-axis and y-axis. […] The checkerboard assay was used to asses other combinations of iron chelators and antibiotics. The fractional inhibitory concentration index (FIC), which was calculated as follows: FIC=(MIC A in combination/MIC A)+(MIC B in combination/MIC B). […] Blank spaces indicate concentrations not tested. […] Against the species PA PAO1 and PA 27853, all the antibiotics except for Ami.

[3] = test system: AB5075 a MDR-clinical isolate of A. baumannii; test: Time-kill assay in CAMHB; settings: for time-kill course of CFU/mL: CAMHB, 24 hours (FIG. 8A); for effect on CFU/ml (time-kill, FIG. 13): 2 and 6 hours
Description: Reductions in colony forming units (CFU)/mL were determined over time (time-kill assay) after exposure to VK28 and deferiprone (DFP), the two iron chelators that performed best in MIC assays when compared to controls. To better represent the iron content found in the human body, MIC and time-kill assays were also determined in minimal media and tissue culture media. Time-Kill assays were performed as previously described in G. P. Neupane et al., “In vitro time-kill activities of ciprofloxacin alone and in combination with the iron chelator deferasirox against Vibrio vulnificus,” European Journal of Clinical Microbiology and Infectious Diseases, 407-410 (2010); and R. L. White, et al., “Comparison of Three Different In Vitro Methods of Detecting synergy: Time-Kill, Checkerboard, and E test,” Journal of Antimicrobial Agents and Chemotherapy, 1914-1918 (1996). Initial inocula, for example 1×10^6 CFU/mL or 1×10^7 CFU/mL were challenged with iron chelator with and/or without an antibiotic. Cells were allowed to grow in CAMHB at 37° C. for 24 hours. Time-kill results were analyzed by determining the change in log 10 numbers of CFU/ml at 0, 6, and 24 h, compared to counts at 0 h. Antimicrobials were considered bactericidal at the lowest concentration that reduced the size of the original inoculum by >3 log 10 CFU/ml (99.9%) over each of the time periods and were considered bacteriostatic if the inoculum's size was reduced by 0 to <3 log 10 CFU/ml.
In this example, time-kill assays were performed as described in Example 9 using Apo6619 as the iron chelator against AB5075 (MRSN959), the MDR-clinical isolate of A. baumannii. The initial inocula was 1×10^6 CFU/mL, and were challenged with 0.5×MIC, 1×MIC and 2×MIC of Apo6619. Time-kill results were analyzed by determining the change in log 10 numbers of CFU/mL at 0, 2 and 4 hours.
In this example, time-kill assays were performed as described in Example 9 using VK28 or DFP as the iron chelator against AB5075, the MDR-clinical isolate of A. baumannii. The initial inocula was 1×10^6 CFU/mL, and were challenged with 0.5×MIC, 1×MIC and 2×MIC of either VK28 or DFP. Time-kill results were analyzed by determining the change in log 10 numbers of CFU/mL at 2 and 6 hours.

Cc1c(O)c(=O)ccn1C [ApoL1, 3-hydroxy-1,2-dimethyl-4(1H)-pyridone]
MIC (Acinetobacter baumannii; ATCC17978, ATCC 17978, Table 1, read-out: MIC of Iron Chelators): 125 µg/mL
MIC (Acinetobacter baumannii; ATCC19606, ATCC 19606, Table 1, read-out: MIC of Iron Chelators): 125 µg/mL
MIC (E. coli; ATCC35218, ATCC 35218): 500 µg/mL
MIC (E. coli; ATCC43888, ATCC 43888 (0157:H7)): 500 µg/mL
MIC (K. pneumonia; ATCC700603, ATCC 700603): 500 µg/mL
MIC (K. pneumonia; BAA2146, BAA-2146): 250 µg/mL
MIC (P. aeruginosa; ATCC27853, ATCC 27853): > 500 µg/mL
MIC (P. aeruginosa; PAO1): 250 µg/mL
MIC (S. aureus; ATCC25923, ATCC 25923): > 500 µg/mL
MIC (S. aureus; ATCC 43300 (MRSA)): > 500 µg/mL
MIC ([1]; AB967, read-out: MIC of Iron Chelators): 250 µg/mL
MIC ([1]; AB2828, read-out: MIC of Iron Chelators): 500 µg/mL
MIC ([1]; AB3340, read-out: MIC of Iron Chelators): 250 µg/mL
MIC ([1]; AB3560, read-out: MIC of Iron Chelators): 500 µg/mL
MIC ([1]; AB3638, read-out: MIC of Iron Chelators): 250 µg/mL
MIC ([1]; AB3785, read-out: MIC of Iron Chelators): 250 µg/mL
MIC ([1]; AB3806, read-out: MIC of Iron Chelators): 500 µg/mL
MIC ([1]; AB3917, read-out: MIC of Iron Chelators): 250 µg/mL
MIC ([1]; AB3927, read-out: MIC of Iron Chelators): 250 µg/mL
MIC ([1]; AB4025, read-out: MIC of Iron Chelators): 250 µg/mL
MIC ([1]; AB4026, read-out: MIC of Iron Chelators): 250 µg/mL
MIC ([1]; AB4027, read-out: MIC of Iron Chelators): 250 µg/mL
MIC ([1]; AB4052, read-out: MIC of Iron Chelators): 250 µg/mL
MIC ([1]; AB4269, read-out: MIC of Iron Chelators): 250 µg/mL
MIC ([1]; AB4448, read-out: MIC of Iron Chelators): 250 µg/mL
MIC ([1]; AB4456, read-out: MIC of Iron Chelators): 250 µg/mL
MIC ([1]; AB4490, read-out: MIC of Iron Chelators): 250 µg/mL
MIC ([1]; AB4498, read-out: MIC of Iron Chelators): 250 µg/mL
MIC ([1]; AB4795, read-out: MIC of Iron Chelators): 250 µg/mL
MIC ([1]; AB4857, read-out: MIC of Iron Chelators): 250 µg/mL
MIC ([1]; AB4878, read-out: MIC of Iron Chelators): 250 µg/mL
MIC ([1]; AB4932, read-out: MIC of Iron Chelators): 500 µg/mL
MIC ([1]; AB4957, read-out: MIC of Iron Chelators): 125 µg/mL
MIC ([1]; AB4991, read-out: MIC of Iron Chelators): 250 µg/mL
MIC ([1]; AB5001, read-out: MIC of Iron Chelators): 125 µg/mL
MIC ([1]; AB5075, read-out: MIC of Iron Chelators): 250 µg/mL
MIC ([1]; AB5197, read-out: MIC of Iron Chelators): 250 µg/mL
MIC ([1]; AB5256, read-out: MIC of Iron Chelators): 250 µg/mL
MIC ([1]; AB5674, read-out: MIC of Iron Chelators): 250 µg/mL
MIC ([1]; AB5711, read-out: MIC of Iron Chelators): 250 µg/mL
FIC ([2]; AB 17978, in combination with Amikacin): 1.25
FIC ([2]; AB 17978, in combination with Cefotaxine): 1.25
FIC ([2]; AB 17978, in combination with Colisitin (Colistin)): 1.25
FIC ([2]; AB 17978, in combination with Doxycycline): 1.25
FIC ([2]; AB 17978, in combination with Rifampin): 0.75
FIC ([2]; AB 19606, in combination with Amikacin): 1.25
FIC ([2]; AB 19606, in combination with Cefotaxine): 1.25
FIC ([2]; AB 19606, in combination with Colisitin (Colistin)): 1.25
FIC ([2]; AB 19606, in combination with Doxycycline): 2.25
FIC ([2]; AB 19606, in combination with Rifampin): 0.75
checkerboard interaction ([2]; with doxycycline (FIG. 39B)): indifference
checkerboard interaction ([2]; with rifampin (FIG. 39A)): moderate synergy
time-kill course of CFU/mL ([3]; 0.5×MIC): reduced level of CFU/ml at 2 and 6 hours but did increase in CFU at 24 hours to levels as seen in the untreated sample
effect on CFU/ml (time-kill, FIG. 13) ([3]; 1×MIC): slight inhibitory effect
time-kill course of CFU/mL ([3]; 1×MIC): reduced level of CFU/ml at 2 and 6 hours but did increase in CFU at 24 hours to levels as seen in the untreated sample
effect on CFU/ml (time-kill, FIG. 13) ([3]; 2×MIC): stronger inhibitory effect
time-kill course of CFU/mL ([3]; 2×MIC): did not have a substantial increase in CFU/ml over the 24 hour period
